In paper PMC2653224 (Journal of molecular biology, 2008):

Target: cytochrome c (Fe^2+ cyt c) (Equus caballus, UniProt P00004)
Experiment: equilibrium heme Soret absorbance titration with CO at […] °C
Assay type: binding

Sequence of cytochrome c (Fe^2+ cyt c) (P00004 2-105): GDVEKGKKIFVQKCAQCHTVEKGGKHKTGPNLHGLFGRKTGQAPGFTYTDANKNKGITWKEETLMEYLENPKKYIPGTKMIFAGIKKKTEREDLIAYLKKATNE

[C-]#[O+] [CO]
Kd: 14 ± 8 nM
